From patent US20030148954A1, “Agents and methods for modulating activator protein-1-mediated cellular processes” (Wisconsin Alumni Research Foundation, priority 2001, published 2003)

How the values were obtained:
Assay type in all cases: cell-based, human
[1] = tested on: CSL (CBF1); experiment: CSL-dependent (p4×CBF1luc) luciferase reporter, transient transfection of K562 cells
Excerpt: (§1) Plasmids—The pBabe-NIC-1 (pNIC-1) expression vector encoding constitutively active Notch-1 (NIC-1) was described previously (36,37,51). This vector was derived from the pBabe-puro retroviral vector and includes a cDNA sequence encoding amino acids 1759-2556 of human Notch-1 with a Myc tag fused to its carboxyl terminus. Human NIC-1 deletion mutants were generated by PCR using a full-length human Notch-1 expression vector as the template. The Notch-dependent reporter plasmid containing four CBF1 binding sites and an simian virus 40 promoter fused to luciferase (p4×CBF1luc) was described previously (52). The AP-1 reporter plasmid (p1×AP1luc) containing a collagenase promoter fragment (−73/+67) with a single AP-1 binding site in the luciferase reporter vector pGL2-basic (Promega) was described previously (53). The NF-κB reporter plasmid (p3×κBluc) containing three NF-κB binding sites and a minimal promoter fused to luciferase was a kind gift of Dr. Shigeki Miyamoto (University of Wisconsin Medical School). […]
(§2) For each transfection, cells were incubated for 26 h after transfection and then treated with TPA (final concentration: 5 nM) or the vehicle (DMSO). […] Luciferase activity was normalized by the protein content of the lysates, determined by Bradford assay using γ-globulin as a standard.

[2] = tested on: NF-κB; experiment: NF-κB luciferase reporter (p3×κBluc), transient transfection of K562 cells; details: TPA
Excerpt: as §1, §2

[3] = tested on: IL-8; experiment: Northern blotting of IL-8 transcripts in K562-Babe and K562-NIC-1 cells; details: 5 nM TPA 12 h, stably transfected NIC-1
Experimental: (§3) Stable Transfection—K562 cells were stably transfected by electroporation with a Bio-Rad Gene pulser electroporator. Cells (5×10^6) were washed with ice-cold PBS, resuspended in 0.5 ml of ice-cold PBS, mixed with 5 μg linearized plasmid DNA, and subjected to electroporation (960 microfarad; 220 V) in a 0.4 cm-wide electroporation cuvette (BTX). pBabe and pNIC-1 were linearized with NotI. Cells were then added to 20 ml of complete IMEM, grown for 48 h, and diluted in complete IMEM containing 1.5 μg/ml puromycin (pools of K562-Babe and K562-NIC-1 cells). Stably transfected cells were analyzed for erythroid differentiation as soon as the pools were generated by benzidine staining to reduce the probability of phenotypic changes that may result from prolonged growth.
(§4) Northern Blotting—Total RNA from K562-Babe and K562-NIC-1 cells was extracted with Triazol (Life Technologies, Inc.). Ten μg of RNA per sample was electrophoresed on a 1% agarose, 6.6% formaldehyde gel and then transferred overnight to a Magnacharge nylon membrane (Osmonics). RNA was cross-linked to the membrane by UV irradiation. Membranes were prehybridized for 30 min at 60° C. in ExpressHyb hybridization solution (Clontech). […] Radioactivity was quantitated by PhosphorImager analysis with ImageQuant software (Molecular Dynamics).

[4] = tested on: MMP1; experiment: Northern blotting of MMP1 transcripts in K562-Babe and K562-NIC-1 cells; details: 5 nM TPA 12 h, stably transfected NIC-1
Experimental: as §3, §4

[5] = tested on: IκBα; experiment: Northern blotting of IκBα transcripts in K562-Babe and K562-NIC-1 cells; details: 5 nM TPA 12 h, stably transfected NIC-1
Experimental: as §3, §4

[6] = tested on: GAL4-c-Jun; experiment: GAL4-c-Jun transactivation, transient assays in K562 cells; details: K562, data not presented
[7] = tested on: JNK; experiment: Western blot with phospho-specific antibodies, JNK; details: K562-NIC-1 versus K562-Babe, 5 nM TPA 30 min
Experimental: as §3
(§5) To measure the phosphorylation state of components of the MAPK pathway, K562-Babe and K562-NIC-1 cells (1×10^6) were collected after treatment with 5 nM TPA or DMSO for 30 min. Cells were washed once with ice-cold PBS, cell pellets were resuspended in 30 μl ice-cold PBS and were immediately boiled in 70 μl SDS sample buffer for 10 min. Proteins (10 μl) were resolved by SDS-PAGE on a 10% acrylamide gel and transferred to Immobilon P membrane (Millipore). […] Antigen-antibody complexes were detected with ECL Plus™ (Amersham Life Science) according to manufacturer's instructions.

[8] = tested on: p38; experiment: Western blot with phospho-specific antibodies, p38; details: K562-NIC-1 versus K562-Babe, 5 nM TPA 30 min
Experimental: as §3, §5

[9] = tested on: ERK1/2; experiment: Western blot with phospho-specific antibodies, ERK1/2; details: K562-NIC-1 versus K562-Babe, 5 nM TPA 30 min
Experimental: as §3, §5

[10] = tested on: c-Fos; experiment: Western blot of Fos protein; details: K562-NIC-1 versus K562-Babe
Experimental: as §3, §5

Question: “NIC-1: constitutively active Notch-1 intracellular domain, amino acids 1759-2556 of human Notch-1 with carboxyl-terminal Myc tag, expressed from pBabe-NIC-1” was tested. Which “activation of CSL-dependent reporter activity” value [1] did it give?
Answer: strongly activated

Question: And the “effect on TPA-induced NF-κB-dependent reporter activity” value [2]?
Answer: no effect

Question: And the “TPA induction of IL-8 transcript levels in K562-NIC-1 versus K562-Babe cells” value [3]?
Answer: considerably lower

Question: And the “TPA induction of MMP1 transcript levels in K562-NIC-1 versus K562-Babe cells” value [4]?
Answer: considerably lower

Question: And the “effect on TPA induction of IκBα transcripts” value [5]?
Answer: no effect

Question: What about the “inhibition of GAL4-c-Jun-mediated transactivation” value [6] of the same substance?
Answer: did not significantly inhibit

Question: And the “effect on TPA-induced or basal phosphorylation of JNK” value [7]?
Answer: did not affect

Question: What about the “effect on TPA-induced or basal phosphorylation of p38” value [8] of the same substance?
Answer: did not affect

Question: What about the “basal and TPA-induced ERK1/2 phosphorylation” value [9] of the same substance?
Answer: slightly higher

Question: What about the “effect on Fos protein levels” value [10] of the same substance?
Answer: did not affect
